Assay results published in US12685312B2, “Sulfonamide apyrase inhibitors” (Texas Crop Science, Inc., priority 2022, dated 2026).

Tested on: apyrase
Assay: Screen for apyrase inhibitors (Method 1, in vitro phosphate-release absorbance assay)
Format: biochemical
Details: inhibitor conc at 1 mM stock, 1 hr room temperature, absorbance 630 nm; rounded average of two assay results
In short: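 Phosphate-release colorimetric assay (Windsor method) in 60 mM Hepes, 3 mM MgCl2, 3 mM CaCl2, 3 mM ATP, pH 6.5, with compound or DMSO control added. Released phosphate developed with ammonium molybdate and ascorbic acid/TCA, then stopped with citrate/acetic acid.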

Compound | % Inhibition of Apyrase [%]
Cc1cc(S(=O)(=O)Nc2ccc(C(=O)N3c4ccccc4CC3C)cc2)ccc1F (stereo not drawn) [I-909, 4-fluoro-3-methyl-N-(4-(2-methylindoline-1-carbonyl)phenyl)benzenesulfonamide] | 60
O=C(Nc1ccc2c(c1)CCC2)c1ccc(NS(=O)(=O)c2ccc3c(c2)OCCO3)cc1 [I-910, N-(2,3-dihydro-1H-inden-5-yl)-4-((2,3-dihydrobenzo[b][1,4]dioxine)-6-sulfonamido)benzamide] | 60
CC1Cc2ccccc2N1C(=O)c1ccc(NS(=O)(=O)c2ccccc2)cc1 (stereo not drawn) [I-911, N-(4-(2-methylindoline-1-carbonyl)phenyl)benzenesulfonamide] | 59
O=C(c1ccc(NS(=O)(=O)c2ccc3c(c2)OCCO3)cc1)N1CCCc2ccccc21 [I-912, N-(4-(1,2,3,4-tetrahydroquinoline-1-carbonyl)phenyl)-2,3-dihydrobenzo[b][1,4]dioxine-6-sulfonamide] | 59
Cc1cccc(NC(=O)c2ccc(NS(=O)(=O)c3ccc(Br)cc3)cc2)c1C [I-913, 4-((4-bromophenyl)sulfonamido)-N-(2,3-dimethylphenyl)benzamide] | 59
CCOc1ccc(NC(=O)c2ccc(NS(=O)(=O)c3ccccc3)cc2)cc1 [I-914, N-(4-ethoxyphenyl)-4-(phenylsulfonamido)benzamide] | 59
COc1ccccc1NC(=O)c1ccc(NS(=O)(=O)c2ccc(Cl)c(C(F)(F)F)c2)cc1 [I-915, 4-((4-chloro-3-(trifluoromethyl)phenyl)sulfonamido)-N-(2-methoxyphenyl)benzamide] | 59
COc1cccc(S(=O)(=O)Nc2ccc(C(=O)Nc3cccc(C(F)(F)F)c3)cc2)c1 [I-916, 4-((3-methoxyphenyl)sulfonamido)-N-(3-(trifluoromethyl)phenyl)benzamide] | 58
Cc1ccc(NC(=O)c2ccc(NS(=O)(=O)c3ccccc3)cc2)cc1C [I-917, N-(3,4-dimethylphenyl)-4-(phenylsulfonamido)benzamide] | 58
Cc1ccc(NC(=O)c2ccc(NS(=O)(=O)c3ccc(F)cc3)cc2)cc1C [I-918, N-(3,4-dimethylphenyl)-4-((4-fluorophenyl)sulfonamido)benzamide] | 58
COc1ccccc1NC(=O)c1ccc(NS(=O)(=O)c2cccc(C(F)(F)F)c2)cc1 [I-919, N-(2-methoxyphenyl)-4-((3-(trifluoromethyl)phenyl)sulfonamido) benzamide] | 58
Cc1cc(S(=O)(=O)Nc2ccc(C(=O)Nc3ccc4c(c3)OCO4)cc2)ccc1F [I-920, N-(benzo[d][1,3]dioxol-5-yl)-4-((4-fluoro-3-methylphenyl)sulfonamido)benzamide] | 57
O=C(Nc1ccc2c(c1)OCO2)c1ccc(NS(=O)(=O)c2ccc3c(c2)OCCO3)cc1 [I-921, N-(benzo[d][1,3]dioxol-5-yl)-4-((2,3-dihydrobenzo[b][1,4]dioxine)-6-sulfonamido)benzamide] | 57
Cc1ccc(C)c(S(=O)(=O)Nc2ccc(C(=O)Nc3cccc(C(F)(F)F)c3)cc2)c1 [I-922, 4-((2,5-dimethylphenyl)sulfonamido)-N-(3-(trifluoromethyl)phenyl)benzamide] | 57
O=C(c1ccc(NS(=O)(=O)c2ccc3c(c2)OCCCO3)cc1)N1CCc2ccccc21 [I-923, N-(4-(indoline-1-carbonyl)phenyl)-3,4-dihydro-2H-benzo[b][1,4]dioxepine-7-sulfonamide] | 57
Cc1ccc(NC(=O)c2ccc(NS(=O)(=O)c3ccc(F)c(F)c3)cc2)cc1F [I-924, 4-((3,4-difluorophenyl)sulfonamido)-N-(3-fluoro-4-methylphenyl)benzamide] | 57
Cc1ccc(S(=O)(=O)N(C)c2ccc(C(=O)Nc3cc([N+](=O)[O-])ccc3C)cc2)cc1 [I-925, 4-((N,4-dimethylphenyl)sulfonamido)-N-(2-methyl-5-nitrophenyl)benzamide] | 56
O=C(Nc1ccc(Cl)c(Cl)c1)c1ccc(NS(=O)(=O)c2ccc(F)c(F)c2)cc1 [I-926, N-(3,4-dichlorophenyl)-4-((3,4-difluorophenyl)sulfonamido)benzamide] | 56
Cc1ccc(S(=O)(=O)Nc2ccc(C(=O)Nc3ccc(F)cc3)cc2)cc1C [I-927, 4-((3,4-dimethylphenyl)sulfonamido)-N-(4-fluorophenyl)benzamide] | 56
N#Cc1cccc(NC(=O)c2ccc(NS(=O)(=O)c3ccc(Br)cc3)cc2)c1 [I-928, 4-((4-bromophenyl)sulfonamido)-N-(3-cyanophenyl)benzamide] | 56
Cc1ccc(C)c(S(=O)(=O)Nc2ccc(C(=O)Nc3ccc4c(c3)OCO4)cc2)c1 [I-929, N-(benzo[d][1,3]dioxol-5-yl)-4-((2,5-dimethylphenyl)sulfonamido)benzamide] | 55
O=C(c1ccc(NS(=O)(=O)c2ccc(Cl)c([N+](=O)[O-])c2)cc1)N1CCCc2ccccc21 [I-930, 4-chloro-3-nitro-N-(4-(1,2,3,4-tetrahydroquinoline-1-carbonyl)phenyl)benzenesulfonamide] | 55
Cc1cc(C)cc(NC(=O)c2ccc(NS(=O)(=O)c3ccc(F)c(Cl)c3)cc2)c1 [I-931, 4-((3-chloro-4-fluorophenyl)sulfonamido)-N-(3,5-dimethylphenyl)benzamide] | 55
N#Cc1cccc(NC(=O)c2ccc(NS(=O)(=O)c3ccc(F)c(F)c3)cc2)c1 [I-932, N-(3-cyanophenyl)-4-((3,4-difluorophenyl)sulfonamido)benzamide] | 55
Cc1cc(Br)ccc1NC(=O)c1ccc(NS(=O)(=O)c2ccc(F)cc2)cc1 [I-933, N-(4-bromo-2-methylphenyl)-4-((4-fluorophenyl)sulfonamido)benzamide] | 53
COc1ccccc1NC(=O)c1ccc(NS(=O)(=O)c2ccc(C(F)(F)F)cc2)cc1 [I-934, N-(2-methoxyphenyl)-4-((4-(trifluoromethyl)phenyl)sulfonamido) benzamide] | 53
O=C(Nc1ccc2c(c1)OCO2)c1ccc(NS(=O)(=O)c2ccc(Br)cc2)cc1 [I-935, N-(benzo[d][1,3]dioxol-5-yl)-4-((4-bromophenyl)sulfonamido)benzamide] | 52
Cc1cccc(NC(=O)c2ccc(NS(=O)(=O)c3ccc(Br)cc3)cc2)c1 [I-936, 4-((4-bromophenyl)sulfonamido)-N-(m-tolyl)benzamide] | 52
Cc1cccc(NC(=O)c2ccc(NS(=O)(=O)c3ccc(F)cc3)cc2)c1C [I-937, N-(2,3-dimethylphenyl)-4-((4-fluorophenyl)sulfonamido)benzamide] | 52

The next lines start with the values.

% Inhibition of Apyrase [%] | Compound
51 | Cc1ccc(S(=O)(=O)N(C)c2ccc(C(=O)Nc3ccc4c(c3)OCCO4)cc2)cc1 [I-938, N-(2,3-dihydrobenzo[b][1,4]dioxin-6-yl)-4-((N,4-dimethylphenyl)sulfonamido)benzamide]
50 | O=C(Nc1ccc2c(c1)OCO2)c1ccc(NS(=O)(=O)c2ccc(F)cc2)cc1 [I-939, N-(benzo[d][1,3]dioxol-5-yl)-4-((4-fluorophenyl)sulfonamido)benzamide]
50 | O=C(Nc1cccc(Br)c1)c1ccc(NS(=O)(=O)c2cccc([N+](=O)[O-])c2)cc1 [I-940, N-(3-bromophenyl)-4-((3-nitrophenyl)sulfonamido)benzamide]
50 | COc1ccc(NC(=O)c2ccc(NS(=O)(=O)c3ccc4c(c3)OCCO4)cc2)cc1 [I-941, 4-((2,3-dihydrobenzo[b][1,4]dioxine)-6-sulfonamido)-N-(4-methoxyphenyl)benzamide]
49 | COc1ccccc1NC(=O)c1ccc(NS(=O)(=O)c2ccc(C#N)cc2)cc1 [I-942, 4-((4-cyanophenyl)sulfonamido)-N-(2-methoxyphenyl)benzamide]
48 | COc1ccccc1NC(=O)c1ccc(NS(=O)(=O)c2cccc(Cl)c2Cl)cc1 [I-943, 4-((2,3-dichlorophenyl)sulfonamido)-N-(2-methoxyphenyl)benzamide]
47 | COc1ccccc1NC(=O)c1ccc(NS(=O)(=O)c2cccc(C#N)c2)cc1 [I-944, 4-((3-cyanophenyl)sulfonamido)-N-(2-methoxyphenyl)benzamide]
44 | Cc1ccc(NC(=O)c2ccc(NS(=O)(=O)c3ccc(Br)cc3)cc2)cc1S(=O)(=O)N(C)C [I-945, 4-((4-bromophenyl)sulfonamido)-N-(3-(N,N-dimethylsulfamoyl)-4-methylphenyl)benzamide]
44 | Cc1ccc(S(=O)(=O)N(C)c2ccc(C(=O)Nc3cccc(N4CCCC4=O)c3)cc2)cc1 [I-946, 4-((N,4-dimethylphenyl)sulfonamido)-N-(3-(2-oxopyrrolidin-1-yl)phenyl)benzamide]
43 | Cc1ccc(S(=O)(=O)N(C)c2ccc(C(=O)Nc3ccccc3OC(F)F)cc2)cc1 [I-947, N-(2-(difluoromethoxy)phenyl)-4-((N,4-dimethylphenyl)sulfonamido)benzamide]
43 | O=C(Nc1ccc(Br)cc1)c1ccc(NS(=O)(=O)c2ccc(F)c(F)c2)cc1 [I-948, N-(4-bromophenyl)-4-((3,4-difluorophenyl)sulfonamido)benzamide]
42 | Cc1cccc(NC(=O)c2ccc(NS(=O)(=O)c3ccc4c(c3)OCCO4)cc2)c1 [I-949, 4-((2,3-dihydrobenzo[b][1,4]dioxine)-6-sulfonamido)-N-(m-tolyl)benzamide]
39 | O=C(Nc1cccc(N2CCCC2=O)c1)c1ccc(NS(=O)(=O)c2ccccc2)cc1 [I-950, N-(3-(2-oxopyrrolidin-1-yl)phenyl)-4-(phenylsulfonamido)benzamide]
